Measured values reported in ChEMBL document CHEMBL5226375, “Synthesis and Comprehensive in Vivo Activity Profiling of Olean-12-en-28-ol, 3β-Pentacosanoate in Experimental Autoimmune Encephalomyelitis: A Natural Remyelinating and Anti-Inflammatory Agent” (J Nat Prod, 2023).
Activity calls are given as the source filed them. The rule behind the calls is not given here.

Columns and labels:
[1] = system: Mus musculus; test: Anti-inflammatory activity against MOG35-55-induced experimental autoimmune encephalomyelitis C57BL/6 mouse model assessed as fold change in HIF1A gene expression in brain at 0.15 mg/kg/day, ig for 14 days starting from 12th day of immunization by RT-qPCR analysis relative to control; assay type: functional; details: time 14 day
[2] = system: Mus musculus; test: Anti-inflammatory activity against MOG35-55-induced experimental autoimmune encephalomyelitis C57BL/6 mouse model assessed as fold change in H2EB1 (HLA-DRB1) gene expression in brain at 0.3 mg/kg/day, ig for 14 days starting from 12th day of immunization by RT-qPCR analysis relative to control; assay type: functional; details: time 14 day
[3] = system: Mus musculus; test: Anti-inflammatory activity against MOG35-55-induced experimental autoimmune encephalomyelitis C57BL/6 mouse model assessed as methylation of CpG sites of IL18 gene promoter in brain at […], ig for 14 days starting from 12th day of immunization by PCR analysis (reference value: 29.2 +/-8%); assay type: functional; details: time 14 day
[4] = system: Mus musculus; test: Anti-inflammatory activity against MOG35-55-induced experimental autoimmune encephalomyelitis C57BL/6 mouse model assessed as reduction in serum chemokines level by measuring reduction in IL-3 level at 0.3 mg/kg/day, ig for 14 days starting from 12th day of immunization by ELISA; assay type: functional, organism-based; details: time 14.0 day
[5] = system: Mus musculus; test: Anti-inflammatory activity against MOG35-55-induced experimental autoimmune encephalomyelitis C57BL/6 mouse model assessed as reduction in serum […] cytokine level by measuring reduction in IL-17 level at 0.3 mg/kg/day, ig for 14 days starting from 12th day of immunization by ELISA; assay type: functional, organism-based; details: time 14.0 day
[6] = system: Mus musculus; test: Anti-inflammatory activity against MOG35-55-induced experimental autoimmune encephalomyelitis C57BL/6 mouse model assessed as reduction in serum chemokines level by measuring reduction in CXCL1 level at 0.3 mg/kg/day, ig for 14 days starting from 12th day of immunization by ELISA; assay type: functional, organism-based; details: time 14.0 day
[7] = system: Mus musculus; test: Anti-inflammatory activity against MOG35-55-induced experimental autoimmune encephalomyelitis C57BL/6 mouse model assessed as reduction in serum monokines level by measuring reduction in IL-1B level at 0.3 mg/kg/day, ig for 14 days starting from 12th day of immunization by ELISA; assay type: functional, organism-based; details: time 14.0 day
[8] = system: Mus musculus; test: Anti-inflammatory activity against MOG35-55-induced experimental autoimmune encephalomyelitis C57BL/6 mouse model assessed as fold change in CXCL9 gene expression in brain at 0.3 mg/kg/day, ig for 14 days starting from 12th day of immunization by RT-qPCR analysis relative to control; assay type: functional; details: time 14 day
[9] = system: Mus musculus; test: Anti-inflammatory activity against MOG35-55-induced experimental autoimmune encephalomyelitis C57BL/6 mouse model assessed as reduction in serum chemokines level by measuring reduction in […] level at 0.3 mg/kg/day, ig for 14 days starting from 12th day of immunization by ELISA; assay type: functional, organism-based; details: time 14.0 day
[10] = system: Mus musculus; test: Anti-inflammatory activity against MOG35-55-induced experimental autoimmune encephalomyelitis C57BL/6 mouse model assessed as methylation of CpG sites of IL10RA gene promoter in brain at […], ig for 14 days starting from 12th day of immunization by PCR analysis (reference value: 34.9 +/-4%); assay type: functional; details: time 14 day
[11] = system: Mus musculus; test: Anti-inflammatory activity against MOG35-55-induced experimental autoimmune encephalomyelitis C57BL/6 mouse model assessed as fold change in TGFB1 gene expression in brain at 0.15 mg/kg/day, ig for 14 days starting from 12th day of immunization by RT-qPCR analysis relative to control; assay type: functional; details: time 14 day
[12] = system: Mus musculus; test: Anti-inflammatory activity against MOG35-55-induced experimental autoimmune encephalomyelitis C57BL/6 mouse model assessed as fold change in GFAP gene expression in brain at 600 mg/kg/day, ig for 14 days starting from 12th day of immunization by RT-qPCR analysis relative to control; assay type: functional; details: time 14 day
[13] = system: Mus musculus; test: Anti-inflammatory activity against MOG35-55-induced experimental autoimmune encephalomyelitis C57BL/6 mouse model assessed as reduction in serum Th1 cytokine level by measuring reduction in TNF-alpha level at 600 mg/kg/day, ig for 14 days starting from 12th day of immunization by ELISA; assay type: functional, organism-based; details: time 14.0 day
[14] = system: Mus musculus; test: Anti-inflammatory activity against MOG35-55-induced experimental autoimmune encephalomyelitis C57BL/6 mouse model assessed as reduction in serum chemokines level by measuring reduction in […] level at 600 mg/kg/day, ig for 14 days starting from 12th day of immunization by ELISA; assay type: functional, organism-based; details: time 14.0 day
[15] = system: Mus musculus; test: Anti-inflammatory activity against MOG35-55-induced experimental autoimmune encephalomyelitis C57BL/6 mouse model assessed as fold change in GFAP gene expression in brain at 300 mg/kg/day, ig for 14 days starting from 12th day of immunization by RT-qPCR analysis relative to control; assay type: functional; details: time 14 day
[16] = system: Mus musculus; test: Anti-inflammatory activity against MOG35-55-induced experimental autoimmune encephalomyelitis C57BL/6 mouse model assessed as fold change in NFKB gene expression in brain at 300 mg/kg/day, ig for 14 days starting from 12th day of immunization by RT-qPCR analysis relative to control; assay type: functional; details: time 14 day
[17] = system: Mus musculus; test: Anti-inflammatory activity against MOG35-55-induced experimental autoimmune encephalomyelitis C57BL/6 mouse model assessed as methylation of CpG sites of TGFB1 gene promoter in brain at 600 mg/kg, ig for 14 days starting from 12th day of immunization by PCR analysis (reference value: 18.3 +/-4%); assay type: functional; details: time 14 day
[18] = system: Mus musculus; test: Anti-inflammatory activity against MOG35-55-induced experimental autoimmune encephalomyelitis C57BL/6 mouse model assessed as increase in brain IL-4 level at 600 mg/kg/day, ig for 14 days starting from 12th day of immunization by ELISA; assay type: functional, organism-based; details: time 14.0 day
[19] = system: Mus musculus; test: Anti-inflammatory activity against MOG35-55-induced experimental autoimmune encephalomyelitis C57BL/6 mouse model assessed as fold change in C1S gene expression in brain at 600 mg/kg/day, ig for 14 days starting from 12th day of immunization by RT-qPCR analysis relative to control; assay type: functional; details: time 14 day
[20] = system: Mus musculus; test: Anti-inflammatory activity against MOG35-55-induced experimental autoimmune encephalomyelitis C57BL/6 mouse model assessed as reduction in serum chemokines level by measuring reduction in IL-3 level at 600 mg/kg/day, ig for 14 days starting from 12th day of immunization by ELISA; assay type: functional, organism-based; details: time 14.0 day
[21] = system: Mus musculus; test: Anti-inflammatory activity against MOG35-55-induced experimental autoimmune encephalomyelitis C57BL/6 mouse model assessed as fold change in TGFB1 gene expression in brain at 600 mg/kg/day, ig for 14 days starting from 12th day of immunization by RT-qPCR analysis relative to control; assay type: functional; details: time 14 day
[22] = system: Mus musculus; test: Anti-inflammatory activity against MOG35-55-induced experimental autoimmune encephalomyelitis C57BL/6 mouse model assessed as fold change in APP gene expression in brain at 300 mg/kg/day, ig for 14 days starting from 12th day of immunization by RT-qPCR analysis relative to control; assay type: functional; details: time 14 day
[23] = system: Mus musculus; test: Anti-inflammatory activity against MOG35-55-induced experimental autoimmune encephalomyelitis C57BL/6 mouse model assessed as fold change in CXCL10 gene expression in brain at 300 mg/kg/day, ig for 14 days starting from 12th day of immunization by RT-qPCR analysis relative to control; assay type: functional; details: time 14 day

## CCCCCCCCc1ccc(CCC(N)(CO)CO)cc1 [FINGOLIMOD]
[1]
  fold change (FC): 2.49
[2]
  fold change (FC): 13.9
[3]
  Activity: 29.5%
[4]
  Activity: Active
[5]
  Activity: Active
[6]
  Activity: Active
[7]
  Activity: Active
[8]
  fold change (FC): -1.12
[9]
  Activity: Active
[10]
  Activity: 51%
[11]
  fold change (FC): 1.86

## CCCCCCCCCCCCCCCCCCCCCCCCC(=O)O[C@H]1CC[C@]2(C)[C@H]3CC=C4[C@@H]5CC(C)(C)CC[C@]5(CO)CC[C@@]4(C)[C@]3(C)CC[C@H]2C1(C)C
[12]
  fold change (FC): 1.79
[13]
  Activity: Active
[14]
  Activity: Active
[15]
  fold change (FC): 1.17
[16]
  fold change (FC): 1.62
[17]
  Activity: 39.8%
[18]
  Activity: Active
[19]
  fold change (FC): 1.98
[20]
  Activity: Active
[21]
  fold change (FC): 8.29
[22]
  fold change (FC): -1.56
[23]
  fold change (FC): 3.24
